Earlier results, collected in patent publication US7488493B2, “Performance aid for pesticide or repellent compositions” (Arkion Life Sciences, LLC, priority 2003, dated 2009).

System: birds

SMILES: O=C1c2ccccc2C(=O)c2ccccc21 [9,10-anthraquinone]
- Lower limit of detection in birds (threshold where birds begin to sense the repellency) (in vivo): 125 ppm
- Content in seed at which birds will not feed (treated seed): 0.1 % by weight
